Values joined by “and” are separate entries in the source; they are usually repeats but may differ in a detail not shown here. Equal entries are not always repeated.
Experiments:
LC3-II = experiment: Western blot and densitometry of LC3-I/II (autophagy); assay type: cell-based, human; conditions: for LC3-II levels compared to the control: agent alone; for densitometry WB, relative to NT = 1: single blot
Source text: Established protocols were used to prepare cell lysates and perform immunoblot analysis. Primary antibodies used include: rabbit LC3 (Cat. #: MBPM036; 1:2,000) from Abacus (Brisbane, Australia) and mouse β-actin (Cat. #: A1978, 1:10,000) from Sigma-Aldrich. The following secondary antibodies were utilized: horseradish peroxidase (HRP)-conjugated anti-rabbit (Cat. #: A6154, […]) and anti-mouse (Cat. #: A4416, 1:10,000) antibodies from Sigma-Aldrich. To ensure equal loading of proteins, membranes were probed for β-actin.

[1] = Ascorbate oxidation assay (redox activity of iron complexes); assay type: biochemical; conditions: for %Fe 30min: ascorbate oxidation as % of the Fe control (Fe 100%): IBE 0.1, 30 min;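 for %Fe 30min (ascorbate oxidation, Fe 100%), průměr: IBE 3 means excess free chelator over iron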;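 for %Fe 30min (ascorbate oxidation, Fe 100%): IBE 3 means excess free chelator over iron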;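 for %Fe 30min: ascorbate oxidation as % of the Fe control (Fe 100%): IBE 0.1 means iron-binding equivalents with iron in excess over chelator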;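 for Change of absorbance, odečet 0 (time 0 subtracted), čas 10, průměr: IBE 3 means excess free chelator over 10 µM FeCl3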;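 for Change of absorbance, odečet 0 (time 0 subtracted), čas 10: IBE 3 means excess free chelator over 10 µM FeCl3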
Description: The ascorbate oxidation assay was used to assess the redox activity of the iron complexes of the chelators using an established protocol. In brief, 100 μM ascorbic acid was prepared immediately prior to the experiment and incubated either alone or in the presence of 10 μM FeCl3 in a 50-fold molar excess (500 μM) of citrate and the chelators. Chelators were assayed at iron-binding equivalents (IBE) of 0.1 (excess of iron), 1 (fully coordinated iron—chelator complexes) and 3 (excess of free chelator). […] The decrease of absorbance between the two time points was calculated and expressed as a percentage of control without the chelator.

[2] = 72 h/37°C, MCF-7, Bp4eT 10 and 100 nM, Dp44mT 100 nM, Baf A1 100 nM
[3] = Supplementary Fig 2, Baf+ NT (Baf alone)
[4] = Supplementary Fig 2, Baf+, 10nM
[5] = Supplementary Fig 2, Baf+, 5uM (5M [sic] for Bp4eT)
[6] = sheet IBE 1, time 10, replicates
[7] = sheet IBE 1, time 20, replicates
[8] = sheet IBE 1, time 30, replicates

With `CO/C1=C\C(C)=C\[C@@H](C)[C@@H](O)[C@@H](C)C/C(C)=C/C=C/[C@H](OC)[C@@H]([C@@H](C)[C@@H](O)[C@H](C)[C@@]2(O)C[C@@H](O)[C@H](C)[C@@H](C(C)C)O2)OC1=O` [Baf A1, Bafilomycin A1, reference compound] the “LC3-II levels compared to the control” value (LC3-II; [2]) was “marked and significant (p < 0.001) increase”.

For `CO/C1=C\C(C)=C\[C@@H](C)[C@@H](O)[C@@H](C)C/C(C)=C/C=C/[C@H](OC)[C@@H]([C@@H](C)[C@@H](O)[C@H](C)[C@@]2(O)C[C@@H](O)[C@H](C)[C@@H](C(C)C)O2)OC1=O` [Baf], the “densitometry WB, relative to NT = 1, Average” value (LC3-II; Fig 7E, Baf alone) was 452.435, the “densitometry WB, relative to NT = 1” value (LC3-II; Fig 7E, Baf alone) was 493.767 and 401.641 and 461.896 and the “densitometry WB, relative to NT = 1, Average” value (LC3-II; [3]) was 120.681. The “densitometry WB, relative to NT = 1” value (LC3-II; [3]) was 125.194 and 89.4619 and 147.387.

In the case of `CN(C)C(=S)NN=C(c1ccccn1)c1ccccn1` [Dp44mT, di-2-pyridylketone 4,4-dimethyl-3-thiosemicarbazone, reference compound], the “LC3-II with Baf A1 relative to Baf A1 and control” value (LC3-II; 24 h/37°C, MCF-7, agent 5 μM, Baf A1 100 nM) is reported as “significant (p < 0.05) increase”, the “LC3II expression with Baf A1 relative to Baf A1 and control” value (LC3-II; 24 h/37°C, MCF-7, agent 10 and 100 nM, Baf A1 100 nM) is reported as “did not lead to a significant (p > 0.05) increase” and the “LC3-II levels upon co-incubation with Baf A1, compared to Baf A1 alone” value (LC3-II; 72 h/37°C, MCF-7, Baf A1 100 nM, Bp4eT 10 and 100 nM, Dp44mT 100 nM) is reported as “significant (p < 0.001–0.05) suppression”. For the same molecule, the “densitometry WB, relative to NT = 1, Average” value (LC3-II; Fig 7E, 100nM) was 4.573, the “densitometry WB, relative to NT = 1, Average” value (LC3-II; Supplementary Fig 2, 10nM) was 1.013 and the “densitometry WB, relative to NT = 1, Average” value (LC3-II; Supplementary Fig 2, 100nM) was 0.7153. For the same molecule, the “densitometry WB, relative to NT = 1, Average” value (LC3-II; Supplementary Fig 2, 5uM (5M [sic] for Bp4eT)) was 2.9502, the “densitometry WB, relative to NT = 1, Average” value (LC3-II; [4]) was 97.312 and the “densitometry WB, relative to NT = 1” value (LC3-II; [4]) was 76.4364 and 79.3437 and 136.156. The “densitometry WB, relative to NT = 1, Average” value (LC3-II; Supplementary Fig 2, Baf+, 100nM) was 73.568, the “densitometry WB, relative to NT = 1, Average” value (LC3-II; [5]) was 249.127 and the “densitometry WB, relative to NT = 1” value (LC3-II; [5]) was 275.571 and 204.438 and 267.371. For the same molecule, the “LC3-II levels compared to the control” value (LC3-II; [2]) was “slight, but significant (p < 0.05) increase”.

In the case of `O=C(O)CN(CCN(CC(=O)O)CC(=O)O)CC(=O)O` [EDTA, reference compound], the “Ascorbate oxidation, % of the control” value ([1]; IBE 0.1) is reported as 161%, the “%Fe 30min: ascorbate oxidation as % of the Fe control (Fe 100%)” value ([1]; mean (průměr)) is reported as 160.9% and the “%Fe 30min: ascorbate oxidation as % of the Fe control (Fe 100%)” value ([1]; single wells) is reported as 159.4% and 155.2% and 146.4% and 180.8% and 176.8% and 168.8%. The “Change of absorbance after subtraction of time 0 (odečet 0)” value (“Change of absorbance … (odečet 0)” below) ([1]; IBE 0.1, time 10, mean (průměr)) was -0.05129, the “Change of absorbance … (odečet 0)” value ([1]; IBE 0.1, time 20, mean (průměr)) was -0.1014 and the “Change of absorbance … (odečet 0)” value ([1]; IBE 0.1, time 30, mean (průměr)) was -0.1524. The “Absorbance (ascorbate, λ = 265 nm)” value ([1]; IBE 0.1, čas 0 (time 0), mean (průměr)) was 0.8103, the “Absorbance (ascorbate, λ = 265 nm)” value ([1]; IBE 0.1, čas 0 (time 0), single wells) was 0.8054 and 0.8016 and 0.8149 and 0.8186 and 0.808 and 0.8024 and the “Absorbance (ascorbate, λ = 265 nm)” value ([1]; IBE 0.1, čas 10 (time 10), mean (průměr)) was 0.759. The “Absorbance (ascorbate, λ = 265 nm)” value ([1]; IBE 0.1, čas 10 (time 10), single wells) was 0.7602 and 0.7682 and 0.7617 and 0.7478 and 0.7502 and 0.7523, the “Absorbance (ascorbate, λ = 265 nm)” value ([1]; IBE 0.1, čas 20 (time 20), mean (průměr)) was 0.7088 and the “Absorbance (ascorbate, λ = 265 nm)” value ([1]; IBE 0.1, čas 20 (time 20), single wells) was 0.708 and 0.7209 and 0.713 and 0.6947 and 0.6986 and 0.7025. For the same molecule, the “Absorbance (ascorbate, λ = 265 nm)” value ([1]; IBE 0.1, čas 30 (time 30), mean (průměr)) was 0.6579, the “Absorbance (ascorbate, λ = 265 nm)” value ([1]; IBE 0.1, čas 30 (time 30), single wells) was 0.6595 and 0.6673 and 0.6654 and 0.6401 and 0.6465 and 0.65 and the “Ascorbate oxidation, % of the control” value ([1]; IBE 1) was 417%. The “Ascorbate oxidation, % of the control” value ([1]; IBE 3) was 427%, the “%Fe 30min (ascorbate oxidation, Fe = 100%), průměr (mean)” value ([1]; sheet IBE 1, 30min, Fe 100%, mean) was 416.7% and the “%Fe 30min (ascorbate oxidation, Fe = 100%), single replicates” value ([1]; sheet IBE 1, 30min, Fe 100%, replicates) was 441% and 427.1% and 415.6% and 401.4% and 393.2% and 387.9%. The “raw reading at čas 0 (time 0), průměr (mean)” value ([1]; sheet IBE 1, time 0, mean of 9 readings) was 0.6818, the “raw reading at čas 0 (time 0), single replicates” value ([1]; sheet IBE 1, time 0, replicates of 2014-03-24 (two runs) and 2014-03-25) was 0.698 and 0.6881 and 0.6774 and 0.6781 and 0.6723 and 0.6948 and the “odečet 0 (reading minus time 0 reading) at čas 10, průměr (mean)” value ([1]; sheet IBE 1, time 10, mean) was -0.1456. The “raw reading at čas 10 (time 10), průměr (mean)” value ([1]; sheet IBE 1, time 10, mean of 9 readings) was 0.5362, the “odečet 0 (reading minus time 0 reading) at čas 10, single replicates” value [1, 6] was -0.1492 and -0.1466 and -0.1396 and -0.1522 and -0.1449 and -0.1427 and the “raw reading at čas 10 (time 10), single replicates” value [1, 6] was 0.5282 and 0.5314 and 0.5326 and 0.5426 and 0.5531 and 0.5454. For the same molecule, the “odečet 0 (reading minus time 0 reading) at čas 20, průměr (mean)” value ([1]; sheet IBE 1, time 20, mean) was -0.2713, the “raw reading at čas 20 (time 20), průměr (mean)” value ([1]; sheet IBE 1, time 20, mean of 9 readings) was 0.4105 and the “odečet 0 (reading minus time 0 reading) at čas 20, single replicates” value [1, 7] was -0.2803 and -0.2685 and -0.2607 and -0.2802 and -0.2739 and -0.2684. The “raw reading at čas 20 (time 20), single replicates” value [1, 7] was 0.3971 and 0.4095 and 0.4115 and 0.4146 and 0.424 and 0.4197, the “odečet 0 (reading minus time 0 reading) at čas 30, průměr (mean)” value ([1]; sheet IBE 1, time 30, mean) was -0.3705 and the “raw reading at čas 30 (time 30), průměr (mean)” value ([1]; sheet IBE 1, time 30, mean of 9 readings) was 0.3114. The “odečet 0 (reading minus time 0 reading) at čas 30, single replicates” value [1, 8] was -0.381 and -0.369 and -0.359 and -0.3788 and -0.3711 and -0.366, the “raw reading at čas 30 (time 30), single replicates” value [1, 8] was 0.2963 and 0.3091 and 0.3132 and 0.316 and 0.3269 and 0.322 and the “%Fe 30min (ascorbate oxidation, Fe 100%), průměr” value ([1]; sheet IBE 3, 30min, Fe alone = 100%, mean (průměr) of the 9 replicates) was 426.7%. For the same molecule, the “%Fe 30min (ascorbate oxidation, Fe 100%)” value ([1]; sheet IBE 3, 30min, Fe alone = 100%, single replicates) was 442% and 427.3% and 421.9% and 434.5% and 414.3% and 409.1%, the “Change of absorbance, odečet 0 (time 0 subtracted), čas 10, průměr” value ([1]; sheet IBE 3, time 10 minus time 0, mean (průměr)) was -0.1585 and the “Change of absorbance, odečet 0 (time 0 subtracted), čas 10” value ([1]; sheet IBE 3, time 10 minus time 0, single replicates) was -0.1642 and -0.1578 and -0.1558 and -0.1617 and -0.1557 and -0.1533. The “Change of absorbance, odečet 0 (time 0 subtracted), čas 20, průměr” value ([1]; sheet IBE 3, time 20 minus time 0, mean (průměr)) was -0.2896, the “Change of absorbance, odečet 0 (time 0 subtracted), čas 20” value ([1]; sheet IBE 3, time 20 minus time 0, single replicates) was -0.3027 and -0.2894 and -0.2865 and -0.2919 and -0.2818 and -0.2751 and the “Change of absorbance, odečet 0 (time 0 subtracted), čas 30, průměr” value ([1]; sheet IBE 3, time 30 minus time 0, mean (průměr)) was -0.3943. The “Change of absorbance, odečet 0 (time 0 subtracted), čas 30” value ([1]; sheet IBE 3, time 30 minus time 0, single replicates) was -0.4103 and -0.3966 and -0.3916 and -0.3977 and -0.3792 and -0.3744.

Reference: publication PMC4604124, “In Vitro Characterization of the Pharmacological Properties of the Anti-Cancer Chelator, Bp4eT, and Its Phase I Metabolites” (PLoS ONE, 2015)
